The values below come from US4971967A, “Quinolinecarboxylic acid derivatives, antibacterial compositions and use” (Kanebo Ltd, priority 1989, dated 1990).

Structures are written as SMILES. Converted amounts (≈) assume the structure as drawn. Counter-ions that a name gives are not always drawn. Like-named read-outs stand apart in the source and are kept apart here.

Common to all, as to assay type: cell-based
Test [1] has as its system Staphylococcus aureus FDA 209P JC-1. Nature of the test: Antibacterial activity (MIC), S. aureus FDA 209P JC-1. The settings on record: FDA209P; Staphylococcus aureus FDA 209P JC-1, Gram +; read-out: Minimum inhibitory concentration (MIC). On the procedure: (§1) The compounds of the present invention (A, C, D, E, F, G, H, I, J, L, O and P) and the known compound (X) as reference were dissolved in 0.1 N aqueous sodium hydroxide to prepare a solution of 5000 μg/ml in concentration. The compounds of the present invention (B, K, M and N) and the known compound (Y) were dissolved in sterilized distilled water to prepare a solution of 5000 μg/ml in concentration. Each solution was diluted with sterilized distilled water to prepare a standard solution with a concentration of each test compound: 1000 μg/ml. The test was carried out by a method as appointed by Japan Society of Chemotherapy [cf. Chemotherapy, 29, 76-79 (1981)(TOKYO)].

Test [2] deals with Serratia marcescens IAM 1184. Nature of the test: Antibacterial activity (MIC), Serratia marcescens IAM 1184. The settings on record: Serratia marcescens, IAM1184, Serratia marcescens IAM 1184, Gram -; read-out: Minimum inhibitory concentration (MIC). On the procedure: as §1
The subject of test [3] is Salmonella typhimurium IID 971. Nature of the test: Antibacterial activity (MIC), Salmonella typhimurium IID 971. The settings on record: Salmonella enterica, read-out: Minimum inhibitory concentration (MIC). On the procedure:
as §1

The subject of the next test is Escherichia coli KC-14. The test can be described thus: Antibacterial activity (MIC), E. coli KC-14. The settings on record: KC14; Escherichia coli KC-14, Gram -; read-out: Minimum inhibitory concentration (MIC). On the procedure:
as §1

The subject of test [4] is Streptococcus faecalis IID 682. The test can be described thus: Antibacterial activity (MIC), Streptococcus faecalis IID 682. The settings on record: for MIC: Enterococcus faecalis. On the procedure: as §1
For test [5], the system named is Pseudomonas aeruginosa IFO 3445. Nature of the test: Antibacterial activity (MIC), P. aeruginosa IFO 3445. The settings on record: Pseudomonas aeruginosa, IFO3445, Pseudomonas aeruginosa IFO 3445, Gram -; read-out: Minimum inhibitory concentration (MIC). On the procedure: as §1
The test system of the next test is Enterobacter cloacae 963. Nature of the test: Antibacterial activity (MIC), Enterobacter cloacae 963. The settings on record: Enterobacter cloacae, 963, Enterobacter cloacae 963, Gram -; read-out: Minimum inhibitory concentration (MIC). On the procedure: as §1
The test system of test [6] is Acinetobacter calcoaceticus AC 54. The test can be described thus: Antibacterial activity (MIC), Acinetobacter calcoaceticus AC 54. As to conditions: AC54; Acinetobacter calcoaceticus AC 54, Gram -; read-out: Minimum inhibitory concentration (MIC). On the procedure:
as §1

A further test relates to Proteus vulgaris OX-19. Nature of the test: Antibacterial activity (MIC), Proteus vulgaris OX-19. The settings on record: OX19; Proteus vulgaris OX-19, Gram -; read-out: Minimum inhibitory concentration (MIC). On the procedure:
as §1

In test [7] the test system is Pseudomonas aeruginosa E-2. The test can be described thus: Antibacterial activity (MIC), P. aeruginosa E-2. The settings on record: E2; Pseudomonas aeruginosa E-2, Gram -; read-out: Minimum inhibitory concentration (MIC). On the procedure: as §1
The test system of test [8] is Enterobacter aerogenes ATCC 13048. The test can be described thus: Antibacterial activity (MIC), Enterobacter aerogenes ATCC 13048. The settings on record: Klebsiella aerogenes, ATCC13048; Enterobacter aerogenes ATCC 13048, Gram -; read-out: Minimum inhibitory concentration (MIC). On the procedure: as §1
The test system of test [9] is Klebsiella pneumoniae PCI-602. The test can be described thus: Antibacterial activity (MIC), Klebsiella pneumoniae PCI-602. As to conditions: PCI602; Klebsiella pneumoniae PCI-602, Gram -; read-out: Minimum inhibitory concentration (MIC). On the procedure:
as §1

The subject of test [10] is Escherichia coli NIHJ JC-2. The test can be described thus: Antibacterial activity (MIC), E. coli NIHJ JC-2. As to conditions: NIHJJC2; Escherichia coli NIHJ JC-2, Gram -; read-out: Minimum inhibitory concentration (MIC). On the procedure: as §1
The test system of test [11] is Bacillus subtilis ATCC 6633. Nature of the test: Antibacterial activity (MIC), Bacillus subtilis ATCC 6633. The settings on record: Bacillus subtilis, ATCC6633, Bacillus subtilis ATCC 6633, Gram +; read-out: Minimum inhibitory concentration (MIC). On the procedure: as §1
Test [12] has as its system Morganella morganii IFO 3848. The test can be described thus: Antibacterial activity (MIC), Morganella morganii IFO 3848. The settings on record: for MIC: Morganella morganii, IFO3848, Morganella morganii IFO 3848, Gram -, read-out: Minimum inhibitory concentration (MIC). On the procedure:
as §1

Test [13] relates to Citrobacter freundii NIHJ 10018-68. Nature of the test: Antibacterial activity (MIC), Citrobacter freundii NIHJ 10018-68. The settings on record: Citrobacter freundii, NIHJ10018, Citrobacter freundii NIHJ 10018-68, Gram -; read-out: Minimum inhibitory concentration (MIC). On the procedure: as §1
The subject of test [14] is Pseudomonas aeruginosa NCTC 10490. The test can be described thus: Antibacterial activity (MIC), P. aeruginosa NCTC 10490. The settings on record: Pseudomonas aeruginosa, NCTC10490, Pseudomonas aeruginosa NCTC 10490, Gram -; read-out: Minimum inhibitory concentration (MIC). On the procedure: as §1
Test [15] relates to Proteus mirabilis IFO 3849. Nature of the test: Antibacterial activity (MIC), Proteus mirabilis IFO 3849. The settings on record: IFO3849; Proteus mirabilis IFO 3849, Gram -; read-out: Minimum inhibitory concentration (MIC). On the procedure:
as §1

For test [16], the system named is Staphylococcus aureus IID 803. Nature of the test: Antibacterial activity (MIC), S. aureus IID 803. The settings on record: IID803; Staphylococcus aureus IID 803, Gram +; read-out: Minimum inhibitory concentration (MIC). On the procedure: as §1
Test [17] deals with Staphylococcus epidermidis IAM-1296. Nature of the test: Antibacterial activity (MIC), S. epidermidis IAM-1296. As to conditions: Staphylococcus epidermidis, IAM1296, Staphylococcus epidermidis IAM-1296, Gram +; read-out: Minimum inhibitory concentration (MIC). On the procedure: as §1
The subject of test [18] is Micrococcus luteus ATCC 9341. The test can be described thus: Antibacterial activity (MIC), Micrococcus luteus ATCC 9341. As to conditions: ATCC9341; Micrococcus luteus ATCC 9341, Gram +; read-out: Minimum inhibitory concentration (MIC). On the procedure: as §1
The test system of the next test is Shigella sonnei EW-33. The test can be described thus: Antibacterial activity (MIC), Shigella sonnei EW-33. As to conditions: Shigella sonnei, EW33, Shigella sonnei EW-33, Gram -; read-out: Minimum inhibitory concentration (MIC). On the procedure: as §1
Where [19] appears, read: Salmonella typhimurium IID 971, Gram -.

With `CN1Cc2csc3c(C(=O)O)c(=O)c4cc(F)c(N5CCOCC5)c1c4n23` [Compound (I), 9,1-(Methylimino)methano-7-fluoro-8-morpholino-5-oxo-5H-thiazolo[3,2-a]quinoline-4-carboxylic acid], the MIC in [1] is 0.006 µg/mL (≈ 0.0154 µM); in test [2] it was 0.39 µg/mL (≈ 1 µM); in test [3] it was 0.05 µg/mL (≈ 0.128 µM); in the test with Escherichia coli KC-14 it was 0.1 µg/mL (≈ 0.257 µM); in test [4] (IID682, read-out: Minimum inhibitory concentration (MIC)), 0.05 µg/mL (≈ 0.128 µM); in test [5] it was 0.39 µg/mL (≈ 1 µM). The MIC was 0.1 µg/mL (≈ 0.257 µM) in the test with Enterobacter cloacae 963; 0.006 µg/mL (≈ 0.0154 µM) in [6]; 0.025 µg/mL (≈ 0.0642 µM) in the test with Proteus vulgaris OX-19; 0.39 µg/mL (≈ 1 µM) in [7]; 0.2 µg/mL (≈ 0.514 µM) in [8]; 0.006 µg/mL (≈ 0.0154 µM) in test [9]. The MIC in test [10] turned out to be 0.1 µg/mL (≈ 0.257 µM); in test [11], 0.006 µg/mL (≈ 0.0154 µM); in test [12] it was 0.1 µg/mL (≈ 0.257 µM); in [13], 0.78 µg/mL (≈ 2 µM); in test [14], 0.2 µg/mL (≈ 0.514 µM); in [15], 0.1 µg/mL (≈ 0.257 µM). For the same compound, the MIC in [16] was determined as 0.006 µg/mL (≈ 0.0154 µM); in [17], 0.025 µg/mL (≈ 0.0642 µM); in test [18] it was 0.1 µg/mL (≈ 0.257 µM); with Shigella sonnei EW-33 it was 0.05 µg/mL (≈ 0.128 µM).

Turning to `CNCC1CCN(c2c(F)cc3c(=O)c(C(=O)O)c4scc5n4c3c2N(C)C5)C1` (stereo not shown) [Compound (N), 9,1-(Methylimino)methano-7-fluoro-8-(3-methylaminomethyl-1-pyrrolidinyl)-5-oxo-5H-thiazolo[3,2-a]quinoline-4-carboxylic acid hydrochloride], the MIC was 0.025 µg/mL in test [1]; 0.78 µg/mL in test [2]; 0.1 µg/mL in test [3] (setting [19]); 0.05 µg/mL with Escherichia coli KC-14; 0.05 µg/mL in test [4] (IID682, Streptococcus faecalis IID 682, Gram +, read-out: Minimum inhibitory concentration (MIC)); 0.78 µg/mL in [5]. The MIC with Enterobacter cloacae 963 was 0.1 µg/mL; in test [6] it was 0.05 µg/mL; in the test with Proteus vulgaris OX-19, 0.05 µg/mL; in test [7], 0.78 µg/mL; in test [8] it was 0.2 µg/mL; in test [9], 0.0125 µg/mL. Moreover, the MIC in test [10] was 0.1 µg/mL; in [11], 0.025 µg/mL; in [12], 0.2 µg/mL; in test [13] it was 0.78 µg/mL; in [14], 0.39 µg/mL; in test [15], 0.39 µg/mL. The MIC in test [16] stood at 0.0125 µg/mL; in test [17], 0.05 µg/mL; in test [18], 0.2 µg/mL; in the test with Shigella sonnei EW-33, 0.05 µg/mL.

As for `CCN1CCN(c2c(F)cc3c(=O)c(C(=O)O)c4scc5n4c3c2N(C)C5)CC1` [Compound (K), 9,1-(Methylimino)methano-7-fluoro-8-(4-ethyl-1-piperazinyl)-5-oxo-5H-thiazolo[3,2-a]quinoline-4-carboxylic acid hydrochloride], the MIC (in test [3] (setting [19]); in the test on Escherichia coli KC-14; in test [6]) was 0.05 µg/mL throughout. Besides, the “Minimum inhibitory concentration (MIC)” value in test [4] (Streptococcus faecalis IID 682, Gram +, hydrochloride) was 0.20 µg/mL; in test [12] (Morganella morganii IFO 3848, Gram -, hydrochloride), 0.20 µg/mL.
